Test results: US20220380341A1, “INHIBITORS OF HIV-1 NEF FOR THE TREATMENT OF HIV DISEASE” (priority 2018, published 2022)
Read-outs that look alike come from different tables or passages of the source.

Assays:
[1] = test system: TZM-bl cell line; format: cell-based; conditions: human, 1 μM
Summary of the method: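 TZM-bl cells (HIV-1 LTR-luciferase) infected with HIV-1NL4-3 with compound at 1 μM; luciferase read 48 h later. Percent inhibition normalized to DMSO wild-type infection (0%) and Nef-defective HIV-1 infection (100% of Nef-dependent effect). Viability in uninfected TZM-bl cells by Cell Titer Blue.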

[2] = target: HIV-1 NefNL4-3 (Human immunodeficiency virus type 1 group M subtype B, UniProt P03406, A33V/T15A/T51N/V11I); test: Surface plasmon resonance binding to recombinant full-length Nef (NL4-3); conditions: for RU30/RUNef (extent of binding): response units at 30 μM relative to Nef immobilized on the SPR chip
[3] = test system: HIV-1NL4-3; test: HIV-1 infectivity assay in TZM-bl reporter cell line (LTR-luciferase, 48 h); format: cell-based; conditions: for inhibition at 1 µM: Human immunodeficiency virus 1, TZM-bl
Summary of the method: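 Percent inhibition of HIV-1NL4-3 infectivity at 1 μM compound, from luciferase output of TZM-bl cells 48 h after infection. Scale anchors are DMSO-treated wild-type infection as zero and DMSO-treated Nef-defective infection as full Nef-dependent effect.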

[4] = test system: HIV-1 NL4-3; test: HIV-1 replication in normal donor PBMCs (p24 Gag AlphaLISA); format: cell-based; conditions: for HIV Replication PBMC IC50 vs. HIV NL4-3: Table 1, 4 days, words (Not active, Borderline) where no bound is given
Procedure: (§1) FIG. 4. Inhibition of HIV-1 replication by compounds disclosed herein in PBMCs. Donor PBMCs were infected with HIV-1 in the presence of inhibitor concentrations ranging from 1 to 1,000 nM or the DMSO carrier solvent as a negative control (0.1% DMSO final). Replication was assessed by p24 Gag AlphaLISA (Perkin Elmer) […]. Each donor was also infected with Nef-defective HIV-1 to establish the baseline for Nef-dependent enhancement of replication in each culture. Cytotoxicity was assessed in uninfected PBMCs over the same incubation period using the CellTiter-Blue assay (Promega). Data were fit by non-linear regression analysis (GraphPad Prism v.7.04) to determine the IC50 and CC50 values shown.
The tables also show data for HIV-1 Replication in normal donor peripheral blood mononuclear cells (PBMCs), which is assay is conducted as follows:
(§2) Non-HLA-typed buffy coats (Source: Pittsburgh Central Blood Bank, #E3755) are received and processed within 24 hours of blood donation. PBMCs are isolated via rocking for RBC separation following 1:1 dilution with PBS, followed by Ficoll gradient centrifugation. The lymphocyte fraction is removed and washed several times for a final concentration of ˜150-300×10^6 cells per donor. Cells are activated for 3 days with 1-5 μg/mL PHA (Sigma) and 50 U/mL IL-2. Cells are plated at 750,000 cells/ml and viability is checked at day 3 using the Cell Titer Blue assay (Promega). If cells are >90% viable, then they are infected with HIV-1 NL4-3, wild-type or Δ-Nef mutant (input typically 30-500 pg/mL p24 capsid equivalents) in the presence or absence of Nef inhibitor analogs. IL-2 is included in the media at the time of infection. After 4 days, cells are lysed with 1% Triton X-100 for 1.5 h, checked for viability via Cell Titer Blue, and frozen/stored at −20° C. HIV-1 replication is assessed with a high-sensitivity HIV-1 p24 AlphaLISA assay (Perkin Elmer) in ½-volume 96-well plates, using one-half of the recommended assay volumes for all reagents (including samples). Assays are read on the BioTek Cytation5 instrument; readout is in AlphaUnits and replication in p24 pg/mL is determined using an HIV-1 p24 capsid protein standard included in the Alpha kit.

[5] = test system: uninfected PBMCs; format: cell-based; conditions: human
Procedure: as §1, §2

[6] = target: T1, HIV-1 Nef SF2 (Human immunodeficiency virus type 1 group M subtype B, UniProt P03407); test: biochemical; format: binding; conditions: two-step induced-fit model, Reichert SPR, read-out: Reichert SPR Nef SF2 (M) two-step fitting
T1 construct: made in house

[7] = target: Nef from SIV (strain mac239) (Simian immunodeficiency virus, UniProt Q5QGG3); test: biochemical
Procedure: Also shown are SPR data recorded on a Reichert 4-channel SPR instrument. […] Recombinant Nef is immobilized on the biosensor surface, and each compound is injected and association/dissociation kinetics are recorded. The resulting data for the 3 isoforms are each best-fit using both a two-site model and a two-step, induced-fit model. Dissociation constants (KD), calculated from the kinetic association and dissociation constants from all three isoforms, are shown in columns 6-7. Data were fit using three regimes and the resulting KD: from each model are shown in the Table: 1:1 Langmuir fit; 2-site fit, which yields low and high affinity components; and a 2-step induced fit model.

[8] = KD, M, Table 4, SPR fit 1:1 Langmuir, KD = koff/kon
[9] = Table 4, 1:1 Langmuir fit, T = 1/koff
[10] = 1.0 μM, TZM-bl reporter cell line, Table 4, read-out: % Infectivity Inhibition
[11] = 48 h, Table 1, TZM-bl cells, 1 μM, 48 h, 100% = Nef-defective HIV-1, read-out: HIV-1 Infectivity % Inhibition Norm. to Δ-Nef @ 1 μM
[12] = KD, M, Table 4, SPR fit 2-step induced fit, KD = koff/kon × koff2/(koff2 + kon2)
[13] = Table 4, 2-step induced fit, T = 1/koff2
[14] = Reichert SPR Nef NL43 (M) two-step fitting, KD, two-step induced-fit model, Reichert SPR, Table 3
[15] = 1 μM, TZM-bl, normalized: DMSO wild-type HIV-1 = 0%, Nef-defective HIV-1 = 100%, read-out: HIV-1 Infectivity % Inhibition norm. to Δ-Nef @ 1 μM
[16] = Nef NL4-3 Binding, SPR 2-state fitting KD, Table 1, 2-step induced-fit model
[17] = read-out: Nef NL4-3 Binding, SPR 1:1 or 2-site fitting KD2, Table 1, 2-site fit, second component

| Compound | % Cell Viability [1] | Kd [2] | Kd [2, 8] | T, minutes (residence time) [2, 9] | RU30/RUNef (extent of binding) [2] | inhibition at 1 µM [3, 10] | HIV Replication PBMC IC50 vs. HIV NL4-3 [4] | Toxicity in HIV Replication PBMC (Toxic @ concentration) [5] | Percent Viability @ 1 μM (TZM-bl cells) [1] | inhibition at 1 µM [3, 11] | Kd [2, 12] | T, minutes (residence time) [2, 13] | Kd [2, 14] | inhibition at 1 µM [3, 15] | Kd [6] | Kd [7] | also measured |
| --- | --- | --- | --- | --- | --- | --- | --- | --- | --- | --- | --- | --- | --- | --- | --- | --- | --- |
| O=C(OCc1ccccc1)N1CCC(Cc2c(-c3ccc(C(F)(F)F)cc3)nn(-c3nc4ccccc4[nH]3)c2O)CC1 [Compound I-162, benzyl 4-{[1-(1H-1,3-benzodiazol-2-yl)-5-hydroxy-3-[4-(trifluoromethyl)phenyl]-1H-pyrazol-4-yl]methyl}piperidine-1-carboxylate] | 90.8% | 1.86e-09 M | 1.86e-09 M | 8.05E + 03 minutes | 4.69E- 03 | 77.5% | Not active | Toxic @ 1 μM |  |  |  |  |  |  |  |  | Nef NL4-3 Binding, SPR 1:1 or 2-site fitting KD1 ([2]; Table 1, 1:1 Langmuir fit where the KD2 cell says '1 to 1 fitting', else 2-site fit): No Interaction |
| O=C(OCc1ccccc1)N1CCC(c2nn(-c3nc4cccc(Cl)c4[nH]3)c(O)c2CCc2ccc(F)cc2)CC1 [Compound I-166, benzyl 4-[1-(7-chloro-1H-1,3-benzodiazol-2-yl)-4-[2-(4-fluorophenyl)ethyl]-5-hydroxy-1H-pyrazol-3-yl]piperidine-1-carboxylate] | 97.0% | 6.03e-09 M | 6.03e-09 M | 2.07E + 03 minutes | 4.21E- 03 | 24.6% | Not active | Toxic @ 1 μM | 97.0% | 24.6% |  |  |  |  |  |  |  |
| CC(C)(C)OC(=O)N1CCC(CCc2c(-c3ccc(S(C)(=O)=O)cc3)nn(-c3nc4cc(Cl)ccc4[nH]3)c2O)CC1 [Compound I-215, tert-butyl 4-{2-[1-(5-chloro-1H-1,3-benzodiazol-2-yl)-5-hydroxy-3-(4-methanesulfonylphenyl)-1H-pyrazol-4-yl]ethyl}piperidine-1-carboxylate] | 74.5% |  |  |  | 1.00E- 02 | 53.5% | Not active | Toxic @ 1 μM |  |  | 1.62e-07 M | 5.87E + 01 minutes |  |  |  |  | HIV-1 Infectivity % Inhibition Norm. to Δ-Nef @ 1 μM ([3]; Table 1, TZM-bl cells, 1 μM, 48 h, 100% = Nef-defective HIV-1): 73.6% |
| Oc1c(CCc2ccc(F)cc2)c(-c2ccc(C(F)(F)F)cc2)nn1-c1nc2cccnc2[nH]1 [Compound I-301, 4-[2-(4-fluorophenyl)ethyl]-1-{1H-imidazo[4,5-b]pyridin-2-yl}-3-[4-(trifluoromethyl)phenyl]-1H-pyrazol-5-ol] | 90.7% |  |  |  | 1.34E- 02 | 81.2% |  | Toxic @ 1 μM |  |  | 6e-11 M |  | 6e-11 M | 81.2% | 3.69e-08 M | 1.74 nM | Toxicity % Viability @ 1 μM (TZM-bl) [1]: 90.7%; Kd ([2]; Nef NL4-3 Binding, SPR 1:1 or 2-site fitting KD2, Table 1, 2-site fit, second component): 2.31e-05 M |
| Oc1c(CCc2ccc(F)cc2)c(-c2ccc(C(F)(F)F)cc2)nn1-c1nc2ccncc2[nH]1 [Compound I-309, 4-[2-(4-fluorophenyl)ethyl]-1-{3H-imidazo[4,5-c]pyridin-2-yl}-3-[4-(trifluoromethyl)phenyl]-1H-pyrazol-5-ol] | 99.1% | 5.76e-10 M | 5.76e-10 M | 1.78E + 04 minutes | 1.59E- 03 | 92.2% | Not active | Toxic @ 1 μM | 99.1% | 92.2% |  |  |  |  |  |  |  |
| Oc1c(CCc2ccc(F)cc2)c(-c2ccc(C(F)(F)F)cc2)nn1-c1cc(C(F)(F)F)n[nH]1 [Compound I-601, 4-[2-(4-fluorophenyl)ethyl]-5′-(trifluoromethyl)-3-[4-(trifluoromethyl)phenyl]-2′H-[1,3′-bipyrazol]-5-ol] | 100% | 1.72e-06 M |  |  | 4.19E- 02 | 67.6% |  |  | 101.3% |  | 2.64e-05 M | 5.59E + 00 minutes | 8.96e-09 M | 67.6% | 4.55e-05 M | 22000 nM | Kd ([2]; Nef NL4-3 Binding, SPR 2-state fitting KD, Table 2, 2-step induced-fit model): 8.96e-09 M; Kd ([2]; read-out: Nef NL4-3 Binding, SPR 1:1 or 2-site fitting KD2, Table 2, 2-site fit, second component): 2.64e-05 M; inhibition at 1 µM ([3]; 48 h, Table 2, TZM-bl cells, 1 μM, 48 h, 100% = Nef-defective HIV-1, read-out: HIV-1 Infectivity % Inhibition Norm. to Δ-Nef @ 1 μM): 67.6%; IC50 ([4]; Human immunodeficiency virus 1, NL43, PBMC, 96 h, Table 2, 4 days): ≤ 10 nM |
| CC(=O)N1CCC(c2nn(-c3nc4ccc(Cl)cc4[nH]3)c(O)c2CCc2ccc(F)cc2)CC1 [Compound I-702, 1-{4-[1-(5-chloro-1H-1,3-benzodiazol-2-yl)-4-[2-(4-fluorophenyl)ethyl]-5-hydroxy-1H-pyrazol-3-yl]piperidin-1-yl}ethan-1-one] | 96.4% | 6.05e-07 M |  |  | 1.56E- 02 | 100% |  | Toxic @ 10 nM | 96.4% | 148% | 3.59e-06 M | 5.05E + 00 minutes |  |  |  |  | Kd [2, 16]: 7.87e-07 M; Kd [2, 17]: 2.72e-06 M |
| CC(C)OC(=O)N1CCC(c2nn(-c3nc4ccccc4[nH]3)c(O)c2CCC2CCOCC2)CC1 [Compound I-722, propan-2-yl 4-[1-(1H-1,3-benzodiazol-2-yl)-5-hydroxy-4-[2-(oxan-4-yl)ethyl]-1H-pyrazol-3-yl]piperidine-1-carboxylate] |  | 2.24e-06 M |  |  |  |  |  |  | 86.8% | 53.4% |  |  | 5.49e-06 M | 53.4% | 1.28e-07 M | 4900 nM | Kd [2, 16]: 5.49e-06 M; Kd [2, 17]: 7.2e-06 M |
| CN(C)S(=O)(=O)N1CCC(c2nn(-c3nc4ccccc4[nH]3)c(O)c2CCc2ccc(F)cc2)CC1 [Compound I-746, 4-[1-(1H-1,3-benzodiazo1-2-y1)-4-[2-(4-fluorophenyl)ethyl]-5-hydroxy-1H-pyrazol-3-yl]-N,N-dimethylpiperidine-1-sulfonamide] |  | 7.96e-07 M |  |  |  |  |  |  | 101.6% | 194% |  |  |  | 194% | 6.84e-06 M | 49.3 nM |  |
